Experimental data reported in patent US5852008A, “Heteroatom substituted benzoyl derivatives that enhance synaptic response mediated by receptors” (The Regents of the University of California, priority 1995, dated 1998).
Like-named read-outs stand apart in the source and are kept apart here.

Experiments:
[1] = test system: AMPA receptors; experiment: Field EPSP in rat hippocampal slices (field CA1): amplitude and area of AMPA receptor-mediated synaptic responses; assay type: cell-based, rat (Sprague-Dawley)
Procedure: The physiological effects of invention compounds can be tested in vitro with slices of rat hippocampus as follows. Excitatory responses (field EPSPs) are measured in hippocampal slices which are maintained in a recording chamber continuously perfused with artificial cerebrospinal fluid (ACSF).
To conduct these tests, the hippocampus was removed from anesthetized, 2 month old Sprague-Dawley rats and in vitro slices (400 micrometers thick) were prepared and maintained in an interface chamber at 35° C. using conventional techniques [see, for example, Dunwiddie and Lynch, J. Physiol. Vol. 276: 353-367 (1978)]. The chamber was constantly perfused at 0.5 ml/min with ACSF containing (in mM): NaCl 124, KCl 3, KH2 PO4 1.25, MgSO4 2.5, CaCl2 3.4, NaHCO3 26, glucose 10 and L-ascorbate 2. A bipolar nichrome stimulating electrode was positioned in the dendritic layer (stratum radiatum) of the hippocampal subfield CA1 close to the border of subfield CA3.
Current pulses (0.1 msec) through the stimulating electrode activate a population of the Schaffer-commissural (SC) fibers which arise from neurons in the subdivision CA3 and terminate in synapses on the dendrites of CA1 neurons. Activation of these synapses causes them to release the transmitter glutamate. Glutamate binds to the postsynaptic AMPA receptors which then transiently open an associated ion channel and permit a sodium current to enter the postsynaptic cell. This current results in a voltage in the extracellular space (the field excitatory postsynaptic potential or field "EPSP") which is recorded by a high impedance recording electrode positioned in the middle of the stratum radiatum of CA1.
For the experiments summarized in FIG. 1, the intensity of the stimulation current was adjusted to produce half-maximal EPSPs (typically about 1.5-2.0 mV). Paired stimulation pulses were given every 40 sec with an interpulse interval of 200 msec (see below). The field EPSPs of the second response were digitized and analyzed to determine amplitude, half-width, and response area. If the responses were stable for 15-30 minutes (baseline), test compounds were added to the perfusion lines for a period of about 15 minutes. The perfusion was then changed back to regular ACSF.
Paired-pulse stimulation was used since stimulation of the SC fibers, in part, activates interneurons which generate an inhibitory postsynaptic potential (IPSP) in the pyramidal cells of CA1. This feed forward IPSP typically sets in after the EPSP reaches its peak. It accelerates the repolarization and shortens the decay phase of the EPSP, and thus could partially mask the effects of the test compounds. One of the relevant features of the feed-forward IPSP is that it can not be reactivated for several hundred milliseconds following a stimulation pulse. This phenomenon can be employed to advantage to eliminate IPSP by delivering paired pulses separated by 200 milliseconds and using the second ("primed") response for data analysis.
These effects are mirrored in the field EPSP, as reported in the literature [see, for example, Staubli et al., Psychobiology supra; Xiao et al., Hippocampus supra; Staubli et al., Hippocampus Vol. 2: 49-58 (1992)].
The variables set forth in the table refer to the following generic structure: [drawing 33]

[2] = test system: AMPA receptor; conditions: cited from earlier work
[3] = PET biodistribution of 11C-labelled Invention Compound II after i.p. injection
From the text: To test the ability of invention compounds to pass the blood-brain barrier, Invention Compound II was labelled with carbon-11.
Radiolabelled Invention Compound II (see the table above) is synthesized by the following scheme (wherein the numbers in parenthesis refer to the quantity of reagent used, in millimoles): [drawing 34] wherein Ar is aryl (such as methylenedioxybenzene), Im is imidazole (thus, ImHCl is imidazole hydrochloride), and R is an alkyl or alkylene radical (so that R2 NH is, for example, piperidine). ^11 C-labelled CO2 is produced by cyclotron irradiation and subsequently used in the above-described synthetic scheme. The time to complete the synthesis is about […] ([…] the half-life of carbon-11). After purification of [^11 C]II on C18 Sep Pak, 260 μCi was diluted with 20 mg of nonradioactive II as carrier in a 1-ml solution of 23% propylene glycol and 10% ethanol in physiologically-buffered saline in order to simulate the dosage of 100 mg/Kg that was used in behavioral studies. The final 1 ml of solution was administered to a 200 g rat under halothane anesthesia (1.4-1.7% in oxygen) by intraperitoneal (i.p.) injection.
Biodistribution of the radiotracer in the body of the rat was monitored by a positron camera (Scanditronix PC2048-15B) and the time-activity curves were constructed using a Vax 3500 (Digital Equipment Corporation) and shown in FIG. 5.

[4] = percent increase in field EPSP amplitude; log dose/response; maximal response of 85% increase assumed where solubility was limiting; read-out: EC50 (field EPSP amplitude)
[5] = read-out: EC50 (field EPSP amplitude); percent increase in field EPSP amplitude; log dose/response; maximal response of 85% increase assumed where solubility was limiting
[6] = after i.p. injection, 100 mg/kg

## O=C(c1ccc2ocnc2c1)N1CC=CCC1 [Invention Compound IX]
[1]; [4]
  EC50: 4000 µM

## O=C(c1ccc2ncoc2c1)N1CC=CCC1 [Invention Compound XI]
[1]; [4]
  EC50: 3000 µM

## O=C(c1ccc2nccnc2c1)N1CC=CCC1 [Invention Compound XIII, 1-(quinoxalin-6-ylcarbonyl)-1,2,3,6-tetrahydropyridine]
[1]; [4]
  EC50: 50 µM

## O=C1CCCN1C(=O)c1ccc2c(c1)OCO2 [Invention Compound XVI]
[1]; [5]
  EC50: 2000 µM

## O=C(c1ccc2c(c1)OCO2)N1CCCCCC1 [Invention Compound VII, 1-(1,3-benzodioxol-5-ylcarbonyl)-hexamethyleneimine]
[1]; [4]
  EC50: 4000 µM

## O=C(c1ccc2c(c1)OCCO2)N1CC=CC1 [Invention Compound VIII]
[1]; [4]
  EC50: 3000 µM

## O=C1CCCC1C(=O)c1ccc2c(c1)OCO2 (centres unmarked) [Invention Compound IV]
[1]; [5]
  EC50: 900 µM

## O=C(c1ccc2nccnc2c1)N1CCCCC1 [Invention Compound XIV, 1-(quinoxalin-6-ylcarbonyl)-piperidine]
[1]; [4]
  EC50: 300 µM

## COc1ccc(C(=O)N2CC[C@@H](O)C2=O)cc1 [(R)-1-p-anisoyl-3-hydroxy-2-pyrrolidinone]
[2]; nootropics tested in slices
  facilitation of AMPA receptor mediated responses: facilitate AMPA receptor mediated responses

## CN(C)c1ccc(C(=O)N2CC=CCC2)cc1 [Invention Compound XV, N-(4-dimethylamino)benzoyl-1,2,3,6-tetrahydropyridine]
[1]; [4]
  EC50: 1700 µM

## O=C(c1ccc2c(c1)OCO2)N1CC=CCC1 [Invention Compound III, 1-(1,3-benzodioxol-5-ylcarbonyl)-1,2,3,6-tetrahydropyridine]
[1]; [4]
  EC50: 800 µM

## O=C(c1ccc2c(c1)OCO2)N1CCCCC1 [Invention Compound II, 1-(1,3-benzodioxol-5-ylcarbonyl)-piperidine]
[1]; [4]
  EC50: 1500 µM
[3]; [6]
  time of peak uptake in brain: about 5 minutes
  time of peak uptake in heart: about 5 minutes
  time of peak uptake in liver: about 3 minutes
  time of peak uptake in soft tissues: about 17 minutes
[3]; i.p.
  passage through the blood-brain barrier: passes freely through the blood-brain barrier
[3]; rat, in vivo, ip
  brain distribution relative to head excluding the cranial cavity: approximately equal to that of the head excluding the cranial cavity
  decline of levels in liver after peak: declined markedly for the first 5 minutes after peaking and then more gradually
  decline of levels in the other three tissues (heart, brain, soft tissue) after peak: declined very gradually after peaking
  entry into and residence in brain (target tissue): relatively rapid and stayed in the brain for an extended period
  order of tissue uptake: liver showed the maximum uptake, followed by heart

## O=C(c1ccc2[nH]cnc2c1)N1CC=CCC1 [Invention Compound XII]
[1]; [4]
  EC50: 5000 µM

## COc1ccc(C(=O)NCCCC(=O)O)cc1 [anisoyl-GABA]
[2]; metabolite of aniracetam
  aniracetam-like effects: no aniracetam-like effects

## CC1Oc2ccc(C(=O)N3CCCCC3)cc2O1 (racemic) [Invention Compound V, (R,S)-1-(2-methyl-1,3-benzodioxol-5-ylcarbonyl)-piperidine]
[1]; [4]
  EC50: 1100 µM

## O=C(c1ccc2c(c1)OCO2)N1CCCC1 [Invention Compound VI, 1(1,3-Benzodioxol-5-ylcarbonyl)-pyrrolidine]
[1]; [4]
  EC50: 1200 µM
